Data taken from patent publication US8063067B2, “Hexenoic acid derivatives, processes for the preparation thereof, pharmaceutical compositions comprising them, and therapeutic applications thereof” (Merck Patent GmbH, priority 2004, dated 2011).
Marks after values point to notes of the source that are not given here. Blank lines part the entries; values can stand above or below the compound they belong to.

Experiments:
[1] = biological target: T1, chimeric protein PPARγ-Gal4 (Homo sapiens, UniProt P37231); experiment: PPARγ-Gal4 chimera luciferase reporter transactivation in co-transfected CV-1 cells; type: cell-based; settings: CV-1 cells (monkey kidney cells), 18 hours contact, fold relative to control cells without product
T1 construct: expressed in transfected cells; host or cells: CV-1 cells (monkey kidney cells)
T1 sequence (P37231 238-503 limits assumed): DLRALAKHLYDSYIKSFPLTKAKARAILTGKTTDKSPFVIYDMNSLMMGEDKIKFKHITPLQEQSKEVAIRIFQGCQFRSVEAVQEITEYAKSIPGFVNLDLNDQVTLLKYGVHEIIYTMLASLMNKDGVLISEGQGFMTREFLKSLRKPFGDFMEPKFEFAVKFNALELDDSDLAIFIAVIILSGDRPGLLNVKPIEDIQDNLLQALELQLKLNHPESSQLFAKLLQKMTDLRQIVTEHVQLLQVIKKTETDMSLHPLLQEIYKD
Method: (§1) The measurement of the PPAR activation was performed according to a technique described by Lehmann et al. (J. Biol. Chem., 270, (1995), 12953-12956).
(§2) CV-1 cells (monkey kidney cells) are co-transfected with an expression vector for the chimeric proteins PPARα-Gal4 or PPARγ-Gal4 and with a “reporter” plasmid that allows the expression of the luciferase gene placed under the control of a promoter comprising Gal4 response elements.
(§3) The cells are plated into 96-well microplates and co-transfected using a commercial reagent with the reporter plasmid (pG5-tk-pGL3) and the expression vector for the chimeric protein (PPARα-Gal4 or PPARγ-Gal4). After incubating for 4 hours, whole culture medium (comprising 10% foetal calf serum) is added to the wells. After 24 hours, the medium is removed and replaced with whole medium comprising the test products (50 μM, 25 μM and 12.5 μM final). The products are left in contact with the cells for 18 hours. The cells are then lysed and the luciferase activity is measured using a luminometer. A PPAR activation factor can then be calculated by means of activation of the expression of the reporter gene induced by the product (relative to the control cells that have not received any product).

[2] = biological target: T2, chimeric protein PPARα-Gal4 (Homo sapiens, UniProt Q07869); experiment: PPARα-Gal4 chimera luciferase reporter transactivation in co-transfected CV-1 cells; type: cell-based; settings: CV-1 cells (monkey kidney cells), 18 hours contact, fold relative to control cells without product
T2 construct: expressed in transfected cells; host or cells: CV-1 cells (monkey kidney cells)
T2 sequence (Q07869 239-466 limits assumed): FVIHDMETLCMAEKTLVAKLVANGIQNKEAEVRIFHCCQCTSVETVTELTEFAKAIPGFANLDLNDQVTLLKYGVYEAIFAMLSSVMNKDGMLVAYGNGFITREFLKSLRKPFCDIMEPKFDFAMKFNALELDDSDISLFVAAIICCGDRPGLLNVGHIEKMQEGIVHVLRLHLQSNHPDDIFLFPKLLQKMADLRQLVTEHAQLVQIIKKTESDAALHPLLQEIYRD
Method: as §1, §2, §3

Gal4 alone = biological target: T3, Gal4 alone (Saccharomyces cerevisiae, UniProt P04386); experiment: Luciferase reporter control with vector expressing Gal4 alone (no PPAR ligand binding domain); type: cell-based; settings: CV-1 cells
T3 construct: expressed in transfected cells; host or cells: CV-1 cells (monkey kidney cells)
Method: CV-1 cells (monkey kidney cells) are co-transfected with an expression vector for the chimeric proteins PPARα-Gal4 or PPARγ-Gal4 and with a “reporter” plasmid that allows the expression of the luciferase gene placed under the control of a promoter comprising Gal4 response elements. The cells are plated into 96-well microplates and co-transfected using a commercial reagent with the reporter plasmid (pG5-tk-pGL3) and the expression vector for the chimeric protein (PPARα-Gal4 or PPARγ-Gal4). After incubating for 4 hours, whole culture medium (comprising 10% foetal calf serum) is added to the wells. After 24 hours, the medium is removed and replaced with whole medium comprising the test products (50 μM, 25 μM and 12.5 μM final). The products are left in contact with the cells for 18 hours. The cells are then lysed and the luciferase activity is measured using a luminometer. A PPAR activation factor can then be calculated by means of activation of the expression of the reporter gene induced by the product (relative to the control cells that have not received any product). […] In the absence of the binding domain for the PPAR α or γ ligand (vector expressing Gal4 alone), the luciferase activity measured in the presence of this product is zero.

db/db mice = experiment: Antidiabetic and hypolipidaemiant activity, oral, db/db mice; type: in vivo; settings: oral 100 mg/kg/day
Method: The antidiabetic and hypolipidaemiant activity of the compounds was determined orally on db/db mice
17-week-old db/db mice are treated orally for 15 days with the compound of Example 2 (100 mg/kg/day). Each group studied comprises seven animals. After treatment for 15 days, retro-orbital samples are taken under mild anaesthesia and after fasting for four hours.
The following parameters were measured:
Assay of the glycaemia (glucose oxidase) and of the lipid parameters on the sera at D15 (COBAS): triglycerides, total cholesterol (CHOL), HDL cholesterol (HDL-C) and free fatty acids (FFA) (BioMérieux and Waco Chemicals assay kit).
The measurements reported represent mean values±standard error.

[3] = 15 days, p < 0.05 versus control
[4] = serum at D15, mean ± standard error

T3 sequence (P04386 whole entry, the tested form may be a part): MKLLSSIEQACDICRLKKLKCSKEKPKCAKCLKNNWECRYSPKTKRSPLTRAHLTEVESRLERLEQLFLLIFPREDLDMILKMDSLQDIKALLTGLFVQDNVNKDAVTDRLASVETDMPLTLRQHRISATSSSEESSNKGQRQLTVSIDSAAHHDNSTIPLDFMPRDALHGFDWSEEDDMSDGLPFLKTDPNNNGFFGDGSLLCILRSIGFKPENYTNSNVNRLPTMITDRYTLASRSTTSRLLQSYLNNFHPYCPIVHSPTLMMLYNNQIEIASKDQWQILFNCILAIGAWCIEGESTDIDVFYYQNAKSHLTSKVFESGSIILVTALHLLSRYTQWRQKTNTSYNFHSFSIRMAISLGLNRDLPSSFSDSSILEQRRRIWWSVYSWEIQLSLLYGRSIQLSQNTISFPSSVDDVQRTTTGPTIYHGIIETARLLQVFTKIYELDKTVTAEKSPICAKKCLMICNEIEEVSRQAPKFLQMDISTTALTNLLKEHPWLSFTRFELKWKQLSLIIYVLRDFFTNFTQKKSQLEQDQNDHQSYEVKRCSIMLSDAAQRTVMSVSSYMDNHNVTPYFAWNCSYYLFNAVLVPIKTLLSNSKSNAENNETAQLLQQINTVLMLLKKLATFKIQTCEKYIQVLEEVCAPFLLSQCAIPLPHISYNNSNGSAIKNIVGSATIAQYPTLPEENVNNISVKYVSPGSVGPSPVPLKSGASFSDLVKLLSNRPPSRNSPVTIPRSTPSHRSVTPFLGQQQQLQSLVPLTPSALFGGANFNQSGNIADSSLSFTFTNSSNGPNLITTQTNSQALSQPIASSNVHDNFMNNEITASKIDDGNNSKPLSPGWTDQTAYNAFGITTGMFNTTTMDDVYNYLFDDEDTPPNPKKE

Structure (SMILES): O=C(O)C(CCC1=CCCCC1)Oc1ccc(C(F)(F)F)cc1 (stereo not shown) [Example 2, 4-cyclohex-1-enyl-2-[4-(trifluoromethyl)phenoxy]butanoic acid]
- melting point: 109 to 111 °C
- PPAR activation factor, Chimer γ ([1]; 12.5 μM): 2.2
- PPAR activation factor, Chimer γ ([1]; 25 μM): 5.2
- PPAR activation factor, Chimer γ ([1]; 50 μM): 9.3
- PPAR activation factor, Chimer α ([2]; 12.5 μM): 3.6
- PPAR activation factor, Chimer α ([2]; 25 μM): 17.2
- PPAR activation factor, Chimer α ([2]; 50 μM): 24.9
- luciferase activity in the absence of the binding domain for the PPAR α or γ ligand (Gal4 alone): zero
- Glycaemia (db/db mice; 15 days, fasted four hours, mean ± standard error): 23.23 ± 5.43 mM
- CHOL, % var. (percentage of variation versus control) (db/db mice; 15 days, not significant): +28% ns
- FFA, % var. (percentage of variation versus control) (db/db mice; 15 days, p < 0.01 versus control): −34% **
- Glycaemia, % var. (percentage of variation versus control) (db/db mice; [3]): −26% *
- HDL-C, % var. (percentage of variation versus control) (db/db mice; [3]): +21% *
- Triglycerides, % var. (percentage of variation versus control) (db/db mice; [3]): −55% *
- CHOL (total cholesterol) (db/db mice; [4]): 6.04 ± 0.61 mM
- FFA (free fatty acids) (db/db mice; [4]): 0.48 ± 0.12 mM
- HDL-C (db/db mice; [4]): 4.26 ± 0.61 mM
- Triglycerides (db/db mice; [4]): 1.05 ± 0.29 mM

Structure (SMILES): C=CCCC(Oc1ccc(-c2ccc(OC)cc2)cc1)C(=O)O (stereo not shown) [Example 8]
- melting point: 128 to 130 °C

Structure (SMILES): O=C(O)C(CCC1=CCCCC1)Oc1ccc2oc3ccccc3c2c1 (stereo not shown) [Example 10]
- melting point: 142 to 144 °C

Structure (SMILES): O=C(O)C(CCC1=CCCC1)Oc1ccc2oc3ccccc3c2c1 (stereo not shown) [Example 11]
- melting point: 140 to 142 °C

Structure (SMILES): C=CCCC(Oc1ccc(-c2ccc(F)cc2)cc1)C(=O)O (stereo not shown) [Example 12]
- melting point: 97 °C
- PPAR activation factor, Chimer γ ([1]; 12.5 μM): 1
- PPAR activation factor, Chimer γ ([1]; 25 μM): 3.4
- PPAR activation factor, Chimer γ ([1]; 50 μM): 15.6
- PPAR activation factor, Chimer α ([2]; 12.5 μM): 4.3
- PPAR activation factor, Chimer α ([2]; 25 μM): 13.1
- PPAR activation factor, Chimer α ([2]; 50 μM): 19.9

Structure (SMILES): O=C(O)C(CCC1=CCCCC1)Oc1ccc(Cl)cc1 (stereo not shown) [Example 13]
- PPAR activation factor, Chimer γ ([1]; 12.5 μM): 7.2
- PPAR activation factor, Chimer γ ([1]; 25 μM): 5.3
- PPAR activation factor, Chimer γ ([1]; 50 μM): 8.5
- PPAR activation factor, Chimer α ([2]; 12.5 μM): 6
- PPAR activation factor, Chimer α ([2]; 25 μM): 4.8
- PPAR activation factor, Chimer α ([2]; 50 μM): 12.5

Structure (SMILES): C=CCCC(Oc1ccc(-c2ccc(Cl)cc2)cc1)C(=O)O (stereo not shown) [Example 16]
- melting point: 127 °C

Structure (SMILES): C=CCCC(Oc1ccc(C(=O)c2ccc(Cl)cc2)cc1)C(=O)O (stereo not shown) [Example 17]
- melting point: 141 °C

Structure (SMILES): O=C(O)C(CCC1=CCCCC1)Oc1ccc(-c2cc3ccccc3s2)cc1 (stereo not shown) [Example 18]
- melting point: 171 to 174 °C

Structure (SMILES): O=C(O)C(CCC1=CCCCC1)Oc1ccc(-c2ccc(F)cc2)cc1 (stereo not shown) [Example 19]
- melting point: 156 to 158 °C

The next lines start with the values.

- melting point: 70 °C
Structure (SMILES): C=CCCC(Oc1ccc(C(F)(F)F)cc1)C(=O)O (stereo not shown) [Example 86]

- melting point: 61 °C
Structure (SMILES): C=CCCC(Oc1ccc(Oc2ccccc2)cc1)C(=O)O (stereo not shown) [Example 87]

- melting point: 125 °C
Structure (SMILES): C=CCCC(Oc1cccc(OCc2ccc3ccccc3n2)c1)C(=O)O (stereo not shown) [Example 88]

- melting point: 120 °C
Structure (SMILES): C=CCCC(Oc1ccc(-c2csc(C)n2)cc1)C(=O)O (stereo not shown) [Example 89]

- melting point: 95 to 98 °C
Structure (SMILES): C=CCCC(Oc1ccc(-c2cc(C)ccc2C)cc1)C(=O)O (stereo not shown) [Example 90]

- melting point: 125 °C
Structure (SMILES): C=CCCC(Oc1ccc(C(=O)/C=C/c2ccccc2)cc1)C(=O)O (stereo not shown) [Example 92]

- melting point: 98 °C
Structure (SMILES): C=CCCC(Oc1ccc(-c2csc3ccccc23)cc1)C(=O)O (stereo not shown) [Example 93]

- melting point: 183 °C
Structure (SMILES): C=CCCC(Oc1ccc(-c2cc3ccccc3s2)cc1)C(=O)O (stereo not shown) [Example 94]

- melting point: 115 to 116 °C
Structure (SMILES): C=CCCC(Oc1ccc(-c2ccc(OC(F)(F)F)cc2)cc1)C(=O)O (stereo not shown) [Example 95]

- melting point: 110 °C
Structure (SMILES): C=CCCC(Oc1ccc(-c2cccc(F)c2)cc1)C(=O)O (stereo not shown) [Example 97]

- melting point: 70 to 72 °C
Structure (SMILES): C=CCCC(Oc1ccc(-c2ccc(F)c(F)c2)cc1)C(=O)O (stereo not shown) [Example 98]
